Here are results for 16 compounds from patent publication US7638508B2, “Glucocorticosteroid compound having anti-inflammatory activity” (Glaxo Group Limited, priority 2003, dated 2009).

The target in one test is T1, glucocorticoid receptor (Homo sapiens, UniProt P04150).
T1 sequence (P04150 1-777): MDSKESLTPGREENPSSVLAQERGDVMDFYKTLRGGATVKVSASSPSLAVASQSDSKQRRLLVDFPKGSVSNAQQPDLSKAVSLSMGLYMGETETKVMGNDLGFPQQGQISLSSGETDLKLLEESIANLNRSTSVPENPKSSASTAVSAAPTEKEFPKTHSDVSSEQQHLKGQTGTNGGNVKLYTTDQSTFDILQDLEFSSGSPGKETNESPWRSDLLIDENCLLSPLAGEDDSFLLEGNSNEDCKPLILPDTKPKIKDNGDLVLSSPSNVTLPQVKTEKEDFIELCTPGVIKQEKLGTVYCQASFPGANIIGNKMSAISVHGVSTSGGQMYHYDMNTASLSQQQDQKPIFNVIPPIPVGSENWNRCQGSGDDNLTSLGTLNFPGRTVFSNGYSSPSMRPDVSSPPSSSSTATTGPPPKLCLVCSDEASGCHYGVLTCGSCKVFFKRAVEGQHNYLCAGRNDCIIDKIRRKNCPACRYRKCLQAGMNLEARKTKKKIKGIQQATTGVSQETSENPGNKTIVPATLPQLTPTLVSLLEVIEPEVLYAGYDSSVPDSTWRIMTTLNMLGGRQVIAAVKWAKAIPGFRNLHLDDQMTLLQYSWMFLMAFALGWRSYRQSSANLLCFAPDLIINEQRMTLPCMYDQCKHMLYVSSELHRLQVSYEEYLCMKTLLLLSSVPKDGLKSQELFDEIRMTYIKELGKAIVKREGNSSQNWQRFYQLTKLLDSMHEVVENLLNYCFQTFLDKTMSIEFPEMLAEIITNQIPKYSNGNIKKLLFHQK
The test is described as follows: MMTV-LTR renilla luciferase reporter assay in A549 cells (direct transactivation of gene expression). It is filed as cell-based. To be noted: 6 hour at 37° C., read-out: maximal response relative to Dexamethasone (100%). The procedure: Pharmacological activity may be assessed in functional in vitro assays of glucocorticoid agonist activity.
The functional assay based on that described by R. J. H. Austin et al., Eur Resp J. (2002), 20, 1386-1392 measures the ability of compounds to directly transactivate gene expression. A549 cells stably transfected with a reporter gene containing the glucocorticoid responsive region of the mouse mammary tumour virus long terminal repeat (MMTV-LTR) coupled to renilla luciferase were treated with test compounds at appropriate doses for 6 hour at 37° C. The amount of luciferase activity present within the cells is then determined by measuring the light emitted following incubation with a suitable substrate.

A further test concerns the target T2, Progesterone Receptor (Homo sapiens, UniProt P06401).
T2 construct: The human breast cancer cell line T47D has been reported to upregulate an endogenous alkaline phosphatase in response to progestins; endogenous in cells; host or cells: T47D cells
T2 sequence (P06401 1-933): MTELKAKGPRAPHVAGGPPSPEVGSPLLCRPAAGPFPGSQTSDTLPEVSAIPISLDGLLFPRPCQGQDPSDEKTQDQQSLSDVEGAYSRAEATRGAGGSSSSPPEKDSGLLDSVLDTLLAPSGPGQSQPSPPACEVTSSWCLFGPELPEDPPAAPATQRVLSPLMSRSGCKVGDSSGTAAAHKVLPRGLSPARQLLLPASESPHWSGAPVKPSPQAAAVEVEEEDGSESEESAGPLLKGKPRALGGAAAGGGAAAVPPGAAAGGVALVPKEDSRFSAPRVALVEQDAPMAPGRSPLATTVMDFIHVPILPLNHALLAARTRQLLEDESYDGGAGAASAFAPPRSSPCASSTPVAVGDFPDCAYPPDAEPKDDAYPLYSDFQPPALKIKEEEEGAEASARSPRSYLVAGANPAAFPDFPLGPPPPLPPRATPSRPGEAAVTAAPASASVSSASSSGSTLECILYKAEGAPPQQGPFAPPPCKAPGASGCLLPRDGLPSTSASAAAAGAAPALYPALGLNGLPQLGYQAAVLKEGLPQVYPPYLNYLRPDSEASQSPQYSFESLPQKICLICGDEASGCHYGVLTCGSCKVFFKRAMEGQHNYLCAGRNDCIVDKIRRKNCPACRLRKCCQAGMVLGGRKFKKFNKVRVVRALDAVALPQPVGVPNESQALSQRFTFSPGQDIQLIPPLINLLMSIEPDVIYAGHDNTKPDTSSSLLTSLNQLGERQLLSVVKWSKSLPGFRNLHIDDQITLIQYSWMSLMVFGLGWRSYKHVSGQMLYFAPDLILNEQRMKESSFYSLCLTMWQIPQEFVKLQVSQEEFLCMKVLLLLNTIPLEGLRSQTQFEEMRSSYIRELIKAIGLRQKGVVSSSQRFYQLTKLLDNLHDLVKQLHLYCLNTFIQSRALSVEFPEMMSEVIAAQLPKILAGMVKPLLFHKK
The experiment in a line: Assay for Progesterone Receptor Activity: alkaline phosphatase upregulation in T47D cells. In kind it is cell-based. Conditions: 24 hours at 37° C. The procedure: Assay for Progesterone Receptor Activity
The human breast cancer cell line T47D has been reported to upregulate an endogenous alkaline phosphatase in response to progestins (Di Lorenzo et al., Cancer Research (1991) 51, 4470-4475. T47D cells were seeded into 96 well plates at a density of 1×10^5 cells per well and grown overnight at 37° C. Steroids were dissolved in DMSO, added to the cells (final DMSO concentration 0.7%), and incubated for 24 hours at 37° C. The cells were then washed with PBS and lysed with RIPA buffer (1% IGEPAL, 0.5% Na deoxycholate, 0.1% SDS in phosphate buffered saline). Alkaline phosphatase activity was measured spectrophotometrically (405 nm) using p-nitrophenylphosphate (1.5 mg/ml) as a substrate dissolved in 1 M diethanolamine, 0.28M NaCl, 0.5 mM MgCl2. Dose response curves were constructed from which EC50 values were estimated.

What is called EC50 is the midpoint of the concentration-response curve.

Each structure is given as a SMILES string.

As for `CC1CC2C3CC(F)C4=CC(=O)C=CC4(C)C3(F)C(O)CC2(C)C1(OC(=O)c1ccc(C(F)(F)F)o1)C(=O)OCC#N` (stereo not drawn) [Example 13, 6α,9α-Difluoro-11β-hydroxy-16α-methyl-3-oxo-17α-(5-trifluoromethyl-furan-2-carbonyl)oxy-androsta-1,4-diene-17β-carboxylic Acid Cyanomethyl Ester], the Emax on glucocorticoid receptor was under 35%. Consider `CC1CC2C3CC(F)C4=CC(=O)C=CC4(C)C3(F)C(O)CC2(C)C1(OC(=O)C1C(C)(C)C1(Cl)Cl)C(=O)SCC#N` (stereo not drawn) [Example 21, 17α-(22-Dichloro-3,3-dimethylclopropylcarbonyl)oxy-6α,9α-difluoro-11β-hydroxy-16α-methyl-3-oxo-androsta-1,4-diene-17β-carbothioic acid S-cyanomethyl Ester], for which, at glucocorticoid receptor, the Emax was under 35%. With `C[C@@H]1C[C@H]2[C@@H]3C[C@H](F)C4=CC(=O)C=C[C@]4(C)[C@@]3(F)[C@@H](O)C[C@]2(C)[C@@]1(OC(=O)C1CCCCC1)C(=O)OCC#N` [Example 5, 17α-(Cyclohexylcarbonyl)oxy-6α,9α-difluoro-11β-hydroxy-16α-methyl-3-oxo-androsta-1,4-diene-17β-carboxylic Acid cyanomethyl Ester], the Emax on glucocorticoid receptor was under 35%. At Progesterone Receptor, this compound showed an EC50 of over 100 nM. As to `C[C@@H]1C[C@H]2[C@@H]3C[C@H](F)C4=CC(=O)C=C[C@]4(C)[C@@]3(F)[C@@H](O)C[C@]2(C)[C@@]1(OC(=O)c1ccc(C(F)(F)F)o1)C(=O)SCC#N` [Example 24, 6α,9α-Difluoro-11β-hydroxy-16α-methyl-3-oxo-17α-(5-trifluoromethyl-furan-2-carbonyl)oxy-androsta-1,4-diene-17β-carbothioic Acid S-cyanomethyl Ester], the Emax on glucocorticoid receptor is under 35%. The compound also returned an EC50 on Progesterone Receptor of over 100 nM. Regarding `COc1c(C(=O)OC2(C(=O)OCC#N)C(C)CC3C4CC(F)C5=CC(=O)C=CC5(C)C4(F)C(O)CC32C)csc1Cl` (stereo not drawn) [Example 19, 17α-(5-Chloro-4-methoxy-thiophene-3-carbonyl)oxy-6α,9α-difluoro-11β-hydroxy-16α-methyl-3-oxo-androsta-1,4-diene-17β-carboxylic Acid Cyanomethyl Ester], at glucocorticoid receptor, the Emax is under 35%.

As to `COc1c(C(=O)OC2(C(=O)SCC#N)C(C)CC3C4CC(F)C5=CC(=O)C=CC5(C)C4(F)C(O)CC32C)csc1Cl` (stereo not drawn) [Example 3, 17α-(5-Chloro-4-methoxy-thiophene-3-carbonyl)oxy-6α,9α-difluoro-11β-hydroxy-16α-methyl-3-oxo-androsta-1,4-diene-17β-carbothioic Acid S-cyanomethyl Ester], the Emax on glucocorticoid receptor is under 35%. In the case of `COc1ccc(C(=O)OC2(C(=O)OCC#N)C(C)CC3C4CC(F)C5=CC(=O)C=CC5(C)C4(F)C(O)CC32C)cc1` (stereo not drawn) [Example 7, 6α,9α-Difluoro-11β-hydroxy-17α-(4-methoxybenzoyl)oxy-16α-methyl-3-oxo-androsta-1,4-diene-17β-carboxylic Acid cyanomethyl Ester], the Emax on glucocorticoid receptor was under 35%.

Take `CC1CC2C3CC(F)C4=CC(=O)C=CC4(C)C3(F)C(O)CC2(C)C1(OC(=O)C1CCCCC1)C(=O)SCC#N` (stereo not drawn) [Example 22, 17α-(Cyclohexylcarbonyl)oxy-6α,9α-difluoro-1,1-hydroxy-16α-methyl-3-oxo-androsta-1,4-diene-17β-carbothioic Acid S-cyanomethyl Ester]: on glucocorticoid receptor, the Emax was under 35%. With `CC1CC2C3CC(F)C4=CC(=O)C=CC4(C)C3(F)C(O)CC2(C)C1(OC(=O)CC(C)(C)C)C(=O)OCC#N` (stereo not drawn) [Example 10, 6α,9α-Difluoro-17α-(3,3-dimethylbutanoyl)oxy-11β-hydroxy-16α-methyl-3-oxo-androsta-1,4-diene-17β-carboxylic Acid Cyanomethyl Ester], the Emax at glucocorticoid receptor was under 35%.

As for `CC1CC2C3CC(F)C4=CC(=O)C=CC4(C)C3(F)C(O)CC2(C)C1(OC(=O)C1C(C)(C)C1(C)C)C(=O)SCC#N` (stereo not drawn) [Example 1, 6α,9α-Difluoro-11β-hydroxy-16α-methyl-3-oxo-17α-(2,2,3,3-tetramethycyclopropylcarbonyl)oxy-androsta-1,4-diene-17β-carbothioic Acid S-cyanomethyl Ester], at glucocorticoid receptor, the Emax was under 35%. On the same count and under the same terms, for `CC1CC2C3CC(F)C4=CC(=O)C=CC4(C)C3(F)C(O)CC2(C)C1(OC(=O)c1ccc(S(C)(=O)=O)s1)C(=O)OCC#N` (stereo not drawn) [Example 14, 6α,9α-Difluoro-11β-hydroxy-16α-methyl-17α-(5-methylsulphonyl-thiophene-2-carbonyl)oxy-3-oxo-androsta-1,4-diene-17β-carboxylic Acid Cyanomethyl Ester] the value was under 35%.

Consider `CC1CC2C3CC(F)C4=CC(=O)C=CC4(C)C3(F)C(O)CC2(C)C1(OC(=O)c1ccc2ccccc2n1)C(=O)OCC#N` (stereo not drawn) [Example 12, 6α,9α-Difluoro-11β-hydroxy-16α-methyl-3-oxo-17α-(quinoline-2-carbonyl)oxy-androsta-1,4-diene-17β-carboxylic Acid Cyanomethyl Ester], for which the Emax on glucocorticoid receptor was under 35%. As to `CC1CC2C3CCC4=CC(=O)C=CC4(C)C3(F)C(O)CC2(C)C1(OC(=O)C1C(C)(C)C1(C)C)C(=O)OCC#N` (stereo not drawn) [Example 17, 9α-Fluoro-11β-hydroxy-16β-methyl-3-oxo-17α-(2,2,3,3-tetramethylcyclopropylcarbonyl)oxy-androsta-1,4-diene-17 b-carboxylic Acid cyanomethyl ester], the Emax at glucocorticoid receptor was under 35%. Same read-out and setting: for `CCc1cc(C(=O)OC2(C(=O)OCC#N)C(C)CC3C4CC(F)C5=CC(=O)C=CC5(C)C4(F)C(O)CC32C)no1` (stereo not drawn) [Example 16, 6α,9α-Difluoro-17α-(5-ethyl-isoxazole-3-carbonyl)oxy-11β-hydroxy-16α-methyl-3-oxo-androsta-1,4-diene-17β-carboxylic Acid Cyanomethyl Ester] the value was under 35%; for `CC1CC2C3CC(F)C4=CC(=O)C=CC4(C)C3(F)C(O)CC2(C)C1(OC(=O)c1c(F)cccc1F)C(=O)OCC#N` (stereo not drawn) [Example 6, 6α,9α-Difluoro-17α-(2,6-difluorobenzoyl)oxy-11β-hydroxy-16α-methyl-3-oxo-androsta-1,4-diene-17β-carboxylic Acid cyanomethyl Ester], under 35%; for `CC1CC2C3CC(F)C4=CC(=O)C=CC4(C)C3(F)C(O)CC2(C)C1(OC(=O)CC1CCCC1)C(=O)OCC#N` (stereo not drawn) [Example 9, 17α-(Cyclopentylmethylcarbonyl)oxy-6α,9α-difluoro-11β-hydroxy-16α-methyl-3-oxo-androsta-1,4-diene-17β-carboxylic Acid Cyanomethyl Ester], under 35%.
